# Patent US20110223221A1, “STABILIZATION PROCESSES OF CATION RADICALS OF PHENOTHIAZINIC COMPOUNDS, COSMECEUTICAL FORMULATIONS AND METHODS FOR SKIN DISEASES AND DISTURBANCES PREVENTION” (priority 2008, published 2011)
# Tests used:
# [1] = Absorption bands of the cationic radicals; assay type: physicochemical; settings: pre-micellic aggregates and micelles
# [2] = target: methionine 80 of cytochrome c (Homo sapiens, UniProt P99999); test: Photooxidation of model protein cytochrome c under UV irradiation, measured by dislocation to the blue of the Soret band; assay type: biochemical; settings: for initial rate of dislocation to the blue of the Soret band: pH=4.0, 120 min UV (without drug 0.42); for effect on damage to cytochrome c: stabilized cation radicals 25 μM
# methionine 80 of cytochrome c (Homo sapiens, UniProt P99999), sequence (P99999 whole entry): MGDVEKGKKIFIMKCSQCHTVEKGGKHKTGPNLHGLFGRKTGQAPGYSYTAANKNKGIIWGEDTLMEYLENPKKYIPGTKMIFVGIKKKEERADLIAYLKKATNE
# Procedure: (§1) It was analyzed the effect of the concentration of the phenothiazine derived compounds of the present invention TR (graph A, FIG. 2) and TFP (graph B, FIG. 2), on the photooxidation of the model protein (methionine 80 of cytochrome c), measured by the degree of deviation to the blue of the Soret band.
# (§2) The white circle, in A and B, represents the damage caused to the protein after two hours of irradiation under UV light at 254 nm, at temperature of 25° C., at pH 4.
# (§3) The effect of the media pH on the initial velocity of oxidation of methionine 80 of cytochrome c was analyzed at an UV irradiation of 254 nm, during 120 min, in the absence and in the presence of the stabilized cation radicals of TR, TFP and FP (FIG. 3). In the presence of the stabilized cation radicals of TR, TFP and FP, de concentration range of 5 to 2500 μM for pH 4.0 and the concentration range of 25 to 2500 μM for the pH range of 3.0 to 7.0 were used.
# (§4) Samples containing cytochrome c 3 μM and TR 25 μM were irradiated at 254 nm, in phosphate buffer 5 mM, pH=4.0, at […]., in a cuvette, at 4 cm from a UV lamp of 4 W. The spectrum of cytochrome c and of phenothiazine were obtained before the irradiation (fine solid line of FIG. 4) and after 60 and 120 min of irradiation (dotted line and thick solid line, respectively, of FIG. 4). The spectrum shown in the curves corresponds to the overlapping spectrum changes of the phenothiazines detected during the same indicated time points.
# (§5) The experiment described in the Example 4 was repeated for different concentrations of phenothiazines. The initial rate of dislocation to the blue of the Soret band was defined regarding the concentration of phenothiazine.
# (§6) The irradiation of the cytochrome c was performed during 120 min, pH=4.0 and under UV lamp of 4 W, which led to the dislocation to the blue of the Soret band from 409 to 406 nm, with initial rate of 0.42 ms^−1 (open circle, FIG. 5).
# (§7) Irradiation of the cytochrome c 3 μM was performed, for a pH variation range from 3.0 to 7.0. In this pH range, the phenothiazine remained predominately protonated due to its pKa of 8.1. […] In the said pH range, the initial rate of dislocation to the blue of the Soret band was determined, after 120 min of UV irradiation, in the presence and in the absence of TR (FIG. 6).
# [3] = UV light transmittance in a quartz plate (Australian Method); assay type: physicochemical; settings: solution of 2.0 mg/cm^2 in a quartz plate, 320 to 360 nm
# Procedure: In order to analyze the transmittance of UV light in the wavelength of 320 to 360 nm, solutions of 2.0 mg/cm^2 of the phenothiazines TR, TFP and FP were used in a quartz plate.
# As it can be observed, in these conditions, TR, TFP and FP block the passage of almost 100% of UV light incidence (FIG. 1). This evaluation was obtained based on the Australian Method (Perassinoto, N. L., Journal In Comesto, VII Ed., 2006), which was elected the most adequate, because it considers the ε of UVA region of absorption. The other methods are based in the 320 and 360 nm absorption ratio and can generate false negative results. According to the Australian Method, it will be a good sunscreen the compound that blocks 90% of UVA light incidence. In the case of the said cation radicals of the phenothiazines of the present invention, the blockage was of 99.99%.
# A solution of 2.0 mg of drug/cm^2 was submitted to an analytical assay in a quartz plate, in the wavelength range from 320 to 360 nm, in order to verify the area of UV light transmittance (FIG. 7).
# This evaluation was performed based in the Australian Method (Perassinoto, N. L.; Journal In Comesto; VII edition; p. 06; 2006), which was elected the most adequate, because it considers the ε of UVA region of absorption. The other methods are based in the 360 and 320 nm absorption ratio and can generate false negative results. According to the Australian Method, it will be a good sunscreen the compound that blocks 90% of UVA light incidence.
# [4] = tested on: methionine 80 of cytochrome c; test: Photooxidation of model protein cytochrome c under UV irradiation, measured by dislocation to the blue of the Soret band; assay type: biochemical; settings: pH=4.0, 120 min UV (without drug 406 nm)
# methionine 80 of cytochrome c, sequence (P99999 whole entry): as above
# Procedure: as §1, §2, §3, §4, §5, §6, §7
# [5] = two hours UV 254 nm, 25° C., pH 4
Structure (SMILES),absorption band of the cationic radical [1],"concentration up to which increasing drug exacerbated the damage (maximum damage) [2, 5]",blockage of the passage of UV light incidence [3],"effect on rate of dislocation to the blue of the Soret band ([2]; 25 μM, pH range from 5.0 to 7.0, 120 min UV)","increase of the initial rate of dislocation to the blue ([2]; 25 μM, pH=3.0)","increase of the initial rate of dislocation to the blue ([2]; 25 μM, pH=4.0)","effect on dislocation rate to the blue ([2]; drug 5 μM, pH=4.0, 120 min UV)",initial rate of dislocation to the blue of the Soret band ([2]; drug 25 μM),initial rate of dislocation to the blue of the Soret band ([2]; drug 2500 μM),"reduction of the initial rate of dislocation to the blue of the Soret band ([2]; high concentrations, pH=4.0)",effect on damage to cytochrome c ([2]; pH range from 5.0 to 3.0),effect on damage to cytochrome c ([2]; pH range from 5.0 to 7.0),"effect on photooxidation damage of cytochrome c at very low concentrations [2, 5]",Soret band after irradiation ([4]; drug 25 μM),Soret band after irradiation ([4]; drug 2500 μM)
"OCCN1CCN(CCCN2c3ccccc3Sc3ccc(C(F)(F)F)cc32)CC1 [FP, 2-[4-[3-[2-(trifluoromethyl)-10H-phenothiazin-10-yl]propyl]piperazin-1-yl]ethanol]",520 nm,10 µM,~100%,,,,,,,,,,,,
"c1ccc2c(c1)Nc1ccccc1S2 [PHT, 10H-phenothiazine]",,,~100%,,,,,,,,,,,,
"CN1CCN(CCCN2c3ccccc3Sc3ccc(C(F)(F)F)cc32)CC1 [TFP, 10-[3-(4-methylpiperazin-1-yl)propyl]-2-(trifluoromethyl)-10H-phenothiazine]",520 nm,,~100%,,,,,,,,,,,,
"CSc1ccc2c(c1)N(CCC1CCCCN1C)c1ccccc1S2 (stereo not drawn) [TR, 10-[2-(1-methyl-2-piperidyl)ethyl]-2-methylsulfanyl-phenothiazine]",615 nm,25 µM,~100%,slight reduction,250%,~50%,discrete reduction,0.6 ms^−1,0.23 ms^−1,around 50%,progressively increased the damage,slightly protected,slight protection,405 nm,407 nm
